Among the data in ChEMBL document CHEMBL3244191, “Study of the structural requirements for dopa potentiation and oxotremorine antagonism by L-prolyl-L-leucylglycinamide” (J Med Chem, 1978) are Activity values, retold here.

Active and inactive are the calls of the source. The rule behind the calls is not given here. Square brackets hold non-standard residues; d marks the D form. Peptide text beside a SMILES is read from it. azaGly = NNC(=O)O; βAla = NCCC(=O)O

Holding throughout (format): functional, organism-based
Test [1] deals with Mus musculus. The test can be described thus: Potentiation of dl-DOPA-induced behavioral effects in ICR mouse assessed as moderate piloerection, salivation, marked increased motor activity and irritability at 10 mg/kg, ip administered 1 hr prior to dl-DOPA-challenge measured for 1 hr. Also noted: dose 10 mg/kg.
Test [2] concerns Mus musculus. Description: Suppression of oxotremorine-induced tremor in ICR mouse at 20 mg/kg, ip pretreated for 1 hr followed by oxotremorine-challenge. Set-up: dose 20 mg/kg.
The test system of test [3] is Mus musculus. Description: Potentiation of dl-DOPA-induced behavioral effects in ICR mouse assessed as moderate piloerection, salivation, marked increased motor activity and irritability at 2.5 mg/kg, ip administered 1 hr prior to dl-DOPA-challenge measured for 1 hr. Also noted: dose 2.5 mg/kg.
The subject of test [4] is Mus musculus. Description: Potentiation of dl-DOPA-induced behavioral effects in ICR mouse assessed as slight piloerection, slight salivation and slight increased motor activity at 2.5 mg/kg, ip administered 1 hr prior to dl-DOPA-challenge measured for 1 hr. Set-up: dose 2.5 mg/kg.
For test [5], the system named is Mus musculus. Description: Potentiation of dl-DOPA-induced behavioral effects in ICR mouse assessed as slight piloerection, slight salivation and slight increased motor activity at 10 mg/kg, ip administered 1 hr prior to dl-DOPA-challenge measured for 1 hr. Also noted: dose 10 mg/kg.
Test [6] has as its system Mus musculus. Description: Suppression of oxotremorine-induced tremor in ICR mouse at 10 mg/kg, ip pretreated for 1 hr followed by oxotremorine-challenge. Also noted: dose 10 mg/kg.
In test [7] the test system is Mus musculus. Description: Suppression of oxotremorine-induced tremor in ICR mouse at 4 mg/kg, ip pretreated for 1 hr followed by oxotremorine-challenge. Also noted: dose 4 mg/kg.
Test [8] relates to Mus musculus. Description: Suppression of oxotremorine-induced tremor in ICR mouse at 1 mg/kg, ip pretreated for 1 hr followed by oxotremorine-challenge. Set-up: dose 1 mg/kg.
Test [9] deals with Mus musculus. The test can be described thus: Potentiation of dl-DOPA-induced behavioral effects in ICR mouse assessed as marked piloerection, profuse salivation, marked increased irritability and reactivity, jumping, squeaking and aggressive fighting at 10 mg/kg, ip administered 1 hr prior to dl-DOPA-challenge measured for 1 hr. Set-up: dose 10 mg/kg.
Test [10] deals with Mus musculus. Description: Potentiation of dl-DOPA-induced behavioral effects in ICR mouse assessed as marked piloerection, profuse salivation, marked increased irritability and reactivity, jumping, squeaking and aggressive fighting at 0.1 mg/kg, ip administered 1 hr prior to dl-DOPA-challenge measured for 1 hr. Also noted: dose 0.1 mg/kg.
For test [11], the system named is Mus musculus. Description: Potentiation of dl-DOPA-induced behavioral effects in ICR mouse assessed as marked piloerection, profuse salivation, marked increased irritability and reactivity, jumping, squeaking and aggressive fighting at 1 mg/kg, ip administered 1 hr prior to dl-DOPA-challenge measured for 1 hr. Also noted: dose 1 mg/kg.

`CC(=O)CNC(=O)[C@H](CC(C)C)NC(=O)[C@@H]1CCCN1`: the outcome in test [1] and in test [3] was Active. Also, the result in [2] was inactive.
In the case of `CC(C)C[C@H](NC(=O)C1CCCC1)C(=O)NCC(N)=O`, the result in [1] and in test [4] was Active. In addition, in test [2], the result was inactive.
In the case of `CC(C)C[C@H](NC(=O)[C@@H]1CCCN1)C(=O)N1CSC[C@@H]1C(N)=O`, the outcome in [5] was Active. Besides, the result in test [2] was inactive.
As to `CC(C)C[C@H](NC(=O)[C@@H]1CCCN1)C(=O)NCC#N`, the result in [1] and in test [4] was Active. Also, the result in [2] was inactive.
As for `CC(C)C[C@H](NC(=O)[C@H]1CSCN1)C(=O)NCC(N)=O`, the result in test [6] and in [2] was inactive. Moreover, the result in test [5] was Active.
Regarding `CC(C)C[C@H](NC(=O)[C@@H]1CCCN1)C(=O)NCC(N)=O` (H-Pro-Leu-Gly-NH2), the outcome in [7], in test [2], in test [9], in [10] and in test [11] was Active. For the same compound, the result in test [8] was inactive.
In the case of `CNC(=O)CNC(=O)[C@H](CC(C)C)NC(=O)[C@@H]1CCCN1` (H-Pro-Leu-Gly-NHMe), the outcome in test [5] was Active. The outcome in test [2] was inactive.
Take `CC(C)C[C@H](NC(=O)[C@@H]1CCCN1)C(=O)N1CCC[C@H]1C(N)=O` (H-Pro-Leu-Pro-NH2): the outcome in test [6] was inactive. The outcome in test [5] and in [2] was Active.
On to `CC(C)C[C@H](NC(=O)[C@@H]1CCCN1)C(=O)NNC(N)=O` (H-Pro-Leu-[azaGly]-NH2), for which the outcome in test [5] was Active. For the same compound, the result in test [2] was inactive.
On the same counts, the results for `CC(C)C[C@H](NC(=O)[C@@H]1CCCN1)C(=O)NCCC(N)=O` (H-Pro-Leu-[βAla]-NH2) are “Active” and “inactive”.
Regarding `CC(C)C[C@H](NC(=O)[C@@H]1CCCN1)C(=O)N1CCSC1C(N)=O` (single isomer, unassigned; (-)), the result in test [1] and in [4] was Active. Also, in test [2], the result was inactive.
Regarding `CC(C)C[C@H](NC(=O)[C@@H]1CCCN1)C(=O)N1CCSC1C(N)=O` (stereo in doubt; 9), the outcome in [5] was Active. Further, the result in [2] was inactive.
